From publication PMC6017357, “In Vitro Inhibitory Effects of Synthetic Cannabinoid EAM-2201 on Cytochrome P450 and UDP-Glucuronosyltransferase Enzyme Activities in Human Liver Microsomes” (Molecules : A Journal of Synthetic Chemistry and Natural …, 2018)

Target: T1, CYP1A2 (Homo sapiens, UniProt P05177)
T1 construct: from tissue; host or cells: ultrapooled human liver microsomes
T1 sequence (P05177 1-516): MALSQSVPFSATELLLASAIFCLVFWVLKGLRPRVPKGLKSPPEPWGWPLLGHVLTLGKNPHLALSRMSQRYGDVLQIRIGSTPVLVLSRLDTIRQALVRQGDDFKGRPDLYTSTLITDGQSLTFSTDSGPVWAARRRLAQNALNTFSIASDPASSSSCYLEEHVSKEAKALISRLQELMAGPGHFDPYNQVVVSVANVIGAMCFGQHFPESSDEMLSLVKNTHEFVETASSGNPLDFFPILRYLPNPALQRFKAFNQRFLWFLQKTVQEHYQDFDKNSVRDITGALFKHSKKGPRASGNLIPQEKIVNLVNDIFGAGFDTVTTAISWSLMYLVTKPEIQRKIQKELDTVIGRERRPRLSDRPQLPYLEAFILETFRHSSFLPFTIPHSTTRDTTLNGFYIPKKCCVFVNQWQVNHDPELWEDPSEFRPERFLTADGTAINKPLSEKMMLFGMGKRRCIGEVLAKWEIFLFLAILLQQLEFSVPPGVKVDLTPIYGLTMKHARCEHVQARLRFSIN
Test: CYP1A2-mediated phenacetin O-deethylation in pooled human liver microsomes
Format: in vitro ADME
Details: up to 50 µM, without 30-min preincubation
Protocol: The inhibitory potential (IC50 values) of EAM-2201 on CYP1A2, CYP2A6, CYP2C8, CYP2C9, CYP2C19, CYP2D6 and CYP3A4 were evaluated using ultrapooled human liver microsomes and a cocktail of seven CYP substrates followed by LC-tandem mass spectrometry (LC-MS/MS) as previously described. […] Aliquots (5 µL) of the diluted supernatants were analyzed using LC-MS/MS. […]
The metabolites formed from CYP substrates were simultaneously quantified using our previously described LC-MS/MS method. […] Quantification was performed by selected reaction monitoring (SRM) of the [M + H]^+ ion and the related product ion for each metabolite: acetaminophen, 152.1 > 110.3; N-desethylamodiaquine, 328.1 > 283.0; 7-hydroxycoumarin, 163.0 > 107.2; 4-hydroxybupropion, 256.1 > 238.0; 4′-hydroxydiclofenac, 312.0 > 231.1; 4′-hydroxy-mephenytoin, 235.1 > 150.1; 1′-hydroxybufuralol, 278.1 > 186.1; 1′-hydroxymidazolam, 341.9 > 324.0; ^13C2,^15N-acetaminophen, 155.1 > 111.2; and d9-1′-hydroxybufuralol, 287.2 > 187.0. […]

CCc1ccc(C(=O)c2cn(CCCCCF)c3ccccc23)c2ccccc12 [EAM-2201, (4-ethyl-1-naphthalenyl)[1-(5-fluoropentyl)-1H-indol-3-yl]-methanone]
inhibition of CYP1A2-mediated phenacetin O-deethylation: negligibly inhibited
